The structures appear in SMILES notation. Bounds are passed on as bounds.

14 molecules from ChEMBL document CHEMBL5518234, “Structure-Guided Discovery of Potent and Selective CLK2 Inhibitors for the Treatment of Knee Osteoarthritis” (J Med Chem, 2024) can be followed below.

The target in test [1] is Dual specificity protein kinase CLK3 (Homo sapiens, UniProt P49761).
Description: Inhibition of CLK3 (unknown origin) incubated for 10 mins in presence of ATP
Test [2] deals with T1, Dual specificity tyrosine-phosphorylation-regulated kinase 1A (Homo sapiens, UniProt Q13627).
Description: Inhibition of DYRK1A (unknown origin) incubated for 10 mins in presence of ATP
In test [3] the target is Dual specificity protein kinase CLK2 (Homo sapiens, UniProt P49760).
Chain of Dual specificity protein kinase CLK2 (P49760 whole entry): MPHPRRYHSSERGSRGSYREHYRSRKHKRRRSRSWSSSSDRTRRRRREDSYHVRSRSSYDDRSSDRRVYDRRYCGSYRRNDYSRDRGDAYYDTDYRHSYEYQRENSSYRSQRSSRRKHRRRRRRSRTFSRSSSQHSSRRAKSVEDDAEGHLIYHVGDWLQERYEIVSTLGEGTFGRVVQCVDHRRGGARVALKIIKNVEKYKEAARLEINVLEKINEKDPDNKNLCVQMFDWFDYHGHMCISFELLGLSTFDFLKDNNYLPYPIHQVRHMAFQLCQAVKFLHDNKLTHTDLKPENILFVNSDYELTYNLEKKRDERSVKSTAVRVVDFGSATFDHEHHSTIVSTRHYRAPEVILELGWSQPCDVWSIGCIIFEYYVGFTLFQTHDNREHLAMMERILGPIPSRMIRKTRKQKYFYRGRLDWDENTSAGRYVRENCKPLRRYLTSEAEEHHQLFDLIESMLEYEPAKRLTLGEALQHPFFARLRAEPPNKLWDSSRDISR
Description: Inhibition of CLK2 (unknown origin) incubated for 10 mins in presence of ATP
Test [4] deals with T2, Dual specificity protein kinase CLK1 (Homo sapiens, UniProt P49759). Conditions: dose 100.0 nM.
Target sequence in this assay (P49759 whole entry, looked up): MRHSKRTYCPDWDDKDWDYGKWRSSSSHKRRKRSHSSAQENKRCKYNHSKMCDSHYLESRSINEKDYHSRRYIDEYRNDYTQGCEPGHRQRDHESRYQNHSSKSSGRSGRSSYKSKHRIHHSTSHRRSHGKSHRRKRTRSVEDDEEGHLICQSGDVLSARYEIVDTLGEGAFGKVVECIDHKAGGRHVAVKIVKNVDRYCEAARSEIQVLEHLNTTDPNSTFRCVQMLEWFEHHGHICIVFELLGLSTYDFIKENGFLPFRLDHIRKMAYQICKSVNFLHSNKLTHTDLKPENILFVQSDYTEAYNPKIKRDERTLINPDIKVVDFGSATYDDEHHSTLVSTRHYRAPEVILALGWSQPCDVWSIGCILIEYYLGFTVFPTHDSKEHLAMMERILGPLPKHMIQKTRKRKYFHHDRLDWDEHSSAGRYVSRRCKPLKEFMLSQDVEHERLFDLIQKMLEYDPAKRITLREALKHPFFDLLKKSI
Description: Inhibition of CLK1 (unknown origin) at 100 nM relative to control
For test [5], the target named is Receptor-type tyrosine-protein kinase FLT3 (Homo sapiens) (UniProt P36888). The note with it: dose 100.0 nM.
Chain of Receptor-type tyrosine-protein kinase FLT3 (Homo sapiens) (P36888 whole entry): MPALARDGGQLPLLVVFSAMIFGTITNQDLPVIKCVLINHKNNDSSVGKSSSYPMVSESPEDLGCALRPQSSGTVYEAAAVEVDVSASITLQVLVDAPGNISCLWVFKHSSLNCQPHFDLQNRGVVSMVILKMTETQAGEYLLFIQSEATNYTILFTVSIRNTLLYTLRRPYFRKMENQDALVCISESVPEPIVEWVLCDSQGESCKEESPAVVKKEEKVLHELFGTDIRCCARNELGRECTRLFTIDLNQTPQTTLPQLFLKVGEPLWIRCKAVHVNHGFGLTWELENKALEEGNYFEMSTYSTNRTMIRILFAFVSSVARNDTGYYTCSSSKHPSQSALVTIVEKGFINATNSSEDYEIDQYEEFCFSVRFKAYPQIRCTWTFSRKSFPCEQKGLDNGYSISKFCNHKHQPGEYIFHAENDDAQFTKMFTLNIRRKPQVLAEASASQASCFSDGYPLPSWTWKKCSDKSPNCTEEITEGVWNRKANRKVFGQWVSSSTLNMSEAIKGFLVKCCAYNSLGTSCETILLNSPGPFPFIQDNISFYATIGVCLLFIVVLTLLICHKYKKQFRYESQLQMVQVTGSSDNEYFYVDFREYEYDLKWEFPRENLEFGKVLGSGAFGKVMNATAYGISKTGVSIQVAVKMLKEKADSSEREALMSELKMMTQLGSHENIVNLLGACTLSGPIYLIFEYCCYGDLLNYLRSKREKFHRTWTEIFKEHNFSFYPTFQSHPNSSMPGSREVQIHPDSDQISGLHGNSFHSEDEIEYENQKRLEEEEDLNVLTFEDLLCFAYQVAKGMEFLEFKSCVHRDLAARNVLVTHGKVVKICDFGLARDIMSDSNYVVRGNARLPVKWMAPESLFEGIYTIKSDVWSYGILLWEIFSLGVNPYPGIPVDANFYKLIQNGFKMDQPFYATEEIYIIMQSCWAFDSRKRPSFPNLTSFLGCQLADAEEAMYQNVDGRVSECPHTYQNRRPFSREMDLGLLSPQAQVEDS
Description: Inhibition of FLT3 (unknown origin) at 100 nM relative to control
The target of test [6] is T3, Dual specificity protein kinase CLK4 (Homo sapiens, UniProt Q9HAZ1). Conditions: dose 100.0 nM.
Description: Inhibition of CLK4 (unknown origin) at 100 nM relative to control
The target of test [7] is Homeodomain-interacting protein kinase 2 (Homo sapiens) (UniProt Q9H2X6). Conditions: dose 100.0 nM.
Description: Inhibition of HIPK2 (unknown origin) at 100 nM relative to control
For test [8], the target named is T4, Serine/arginine-rich splicing factor 6 (Rattus norvegicus) (UniProt G3V6S8).
T4 sequence (whole entry): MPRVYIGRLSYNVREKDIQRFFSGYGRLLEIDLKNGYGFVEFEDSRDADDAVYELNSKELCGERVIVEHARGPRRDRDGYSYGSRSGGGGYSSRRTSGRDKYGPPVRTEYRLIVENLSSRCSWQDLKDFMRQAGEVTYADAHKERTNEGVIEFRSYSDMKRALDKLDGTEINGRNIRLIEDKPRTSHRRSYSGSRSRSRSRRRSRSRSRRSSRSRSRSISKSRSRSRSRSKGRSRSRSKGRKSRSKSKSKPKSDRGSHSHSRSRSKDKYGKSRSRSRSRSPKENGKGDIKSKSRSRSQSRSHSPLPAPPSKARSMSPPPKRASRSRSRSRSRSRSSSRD
Conditions: Chondrocyte, dose 10-100 nM, time 1.0 hrs.

Test [9] deals with T2, Dual specificity protein kinase CLK1.
Target sequence in this assay (P49759 whole entry): as the sequence (P49759 whole entry, looked up) above
Description: Inhibition of CLK1 (unknown origin) incubated for 10 mins in presence of ATP
Test [10] deals with T1, Dual specificity tyrosine-phosphorylation-regulated kinase 1A. Conditions: dose 100.0 nM.
Description: Inhibition of DYRKIA (unknown origin) at 100 nM relative to control
Test [11] concerns the target TRAF2 and NCK-interacting protein kinase (Homo sapiens) (UniProt Q9UKE5). Conditions: dose 100.0 nM.
Description: Inhibition of TNIK (unknown origin) at 100 nM relative to control
In test [12] the target is T3, Dual specificity protein kinase CLK4.
Description: Inhibition of CLK4 (unknown origin) incubated for 10 mins in presence of ATP
Test [13] has as its target Serine/threonine-protein kinase pim-3 (Homo sapiens) (UniProt Q86V86). The note with it: dose 100.0 nM.
Description: Inhibition of PIM3 (unknown origin) at 100 nM relative to control
Test [14] addresses Dual specificity tyrosine-phosphorylation-regulated kinase 1B (Homo sapiens) (UniProt Q9Y463). Conditions: dose 100.0 nM.
Description: Inhibition of DYRK1B (unknown origin) at 100 nM relative to control

Chain of Dual specificity protein kinase CLK3 (P49761 whole entry): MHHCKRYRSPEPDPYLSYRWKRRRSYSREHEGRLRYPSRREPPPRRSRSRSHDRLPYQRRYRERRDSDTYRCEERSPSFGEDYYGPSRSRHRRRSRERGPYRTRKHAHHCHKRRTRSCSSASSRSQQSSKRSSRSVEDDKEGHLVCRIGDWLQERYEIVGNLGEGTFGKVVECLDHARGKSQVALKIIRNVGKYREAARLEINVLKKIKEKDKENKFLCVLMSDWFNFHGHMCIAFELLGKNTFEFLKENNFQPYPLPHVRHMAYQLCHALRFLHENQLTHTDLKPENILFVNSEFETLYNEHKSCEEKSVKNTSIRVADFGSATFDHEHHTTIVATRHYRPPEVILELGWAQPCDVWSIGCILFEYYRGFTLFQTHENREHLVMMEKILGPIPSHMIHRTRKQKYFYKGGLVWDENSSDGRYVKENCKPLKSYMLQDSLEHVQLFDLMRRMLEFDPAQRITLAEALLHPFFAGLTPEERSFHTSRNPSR
Chain of Dual specificity tyrosine-phosphorylation-regulated kinase 1B (Homo sapiens) (Q9Y463 whole entry, looked up): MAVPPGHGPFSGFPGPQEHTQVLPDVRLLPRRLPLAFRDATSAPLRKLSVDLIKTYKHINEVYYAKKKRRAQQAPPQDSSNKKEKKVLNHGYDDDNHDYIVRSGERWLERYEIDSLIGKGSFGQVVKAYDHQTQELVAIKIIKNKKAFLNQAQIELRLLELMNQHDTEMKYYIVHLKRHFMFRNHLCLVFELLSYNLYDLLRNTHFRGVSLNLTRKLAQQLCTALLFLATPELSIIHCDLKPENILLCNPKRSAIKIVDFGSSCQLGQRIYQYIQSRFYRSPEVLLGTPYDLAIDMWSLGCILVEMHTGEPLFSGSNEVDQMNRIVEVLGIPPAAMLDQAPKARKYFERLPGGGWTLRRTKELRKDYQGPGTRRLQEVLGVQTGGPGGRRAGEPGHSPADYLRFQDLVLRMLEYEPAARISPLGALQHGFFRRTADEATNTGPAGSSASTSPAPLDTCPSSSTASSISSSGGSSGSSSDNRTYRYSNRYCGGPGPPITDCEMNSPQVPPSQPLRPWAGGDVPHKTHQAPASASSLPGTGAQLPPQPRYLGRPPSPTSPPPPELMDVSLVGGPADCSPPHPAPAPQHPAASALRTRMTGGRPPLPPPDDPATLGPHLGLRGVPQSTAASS
Chain of TRAF2 and NCK-interacting protein kinase (Homo sapiens) (Q9UKE5 whole entry, looked up): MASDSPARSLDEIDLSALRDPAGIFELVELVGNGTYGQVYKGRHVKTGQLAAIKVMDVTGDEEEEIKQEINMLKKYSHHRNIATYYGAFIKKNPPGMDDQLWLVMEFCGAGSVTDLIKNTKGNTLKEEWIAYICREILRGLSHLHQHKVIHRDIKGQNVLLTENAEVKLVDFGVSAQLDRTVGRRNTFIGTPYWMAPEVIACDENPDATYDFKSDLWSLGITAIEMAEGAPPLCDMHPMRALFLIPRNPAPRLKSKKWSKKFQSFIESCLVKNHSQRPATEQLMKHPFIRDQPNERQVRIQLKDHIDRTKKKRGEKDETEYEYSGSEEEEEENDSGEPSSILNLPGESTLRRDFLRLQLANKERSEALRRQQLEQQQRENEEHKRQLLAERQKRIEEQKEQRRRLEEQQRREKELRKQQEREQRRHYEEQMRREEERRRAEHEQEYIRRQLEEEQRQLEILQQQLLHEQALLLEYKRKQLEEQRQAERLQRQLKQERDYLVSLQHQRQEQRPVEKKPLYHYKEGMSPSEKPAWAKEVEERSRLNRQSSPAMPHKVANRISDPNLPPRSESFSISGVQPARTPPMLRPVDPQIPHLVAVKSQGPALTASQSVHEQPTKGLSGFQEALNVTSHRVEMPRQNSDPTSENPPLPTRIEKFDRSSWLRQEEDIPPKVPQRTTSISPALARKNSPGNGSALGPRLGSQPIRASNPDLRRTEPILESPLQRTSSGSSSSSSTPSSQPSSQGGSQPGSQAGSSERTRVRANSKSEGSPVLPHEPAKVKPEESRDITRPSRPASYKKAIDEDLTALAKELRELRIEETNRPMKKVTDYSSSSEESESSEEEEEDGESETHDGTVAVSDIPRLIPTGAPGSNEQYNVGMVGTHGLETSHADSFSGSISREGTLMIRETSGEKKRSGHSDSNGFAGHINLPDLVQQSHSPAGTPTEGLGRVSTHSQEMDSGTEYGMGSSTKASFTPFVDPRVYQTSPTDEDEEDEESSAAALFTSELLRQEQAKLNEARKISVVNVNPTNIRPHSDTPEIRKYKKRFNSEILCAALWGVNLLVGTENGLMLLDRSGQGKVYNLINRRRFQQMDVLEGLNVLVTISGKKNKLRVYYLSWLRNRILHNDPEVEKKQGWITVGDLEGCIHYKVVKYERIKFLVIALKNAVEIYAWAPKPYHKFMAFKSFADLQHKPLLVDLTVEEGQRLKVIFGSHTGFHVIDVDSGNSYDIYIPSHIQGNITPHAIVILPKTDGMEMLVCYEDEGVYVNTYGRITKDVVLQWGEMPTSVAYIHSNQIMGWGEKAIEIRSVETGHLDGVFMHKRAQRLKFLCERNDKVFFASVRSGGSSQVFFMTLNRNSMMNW

In [1], `CC(C)CC(=O)Nc1cncc(-c2ccc3[nH]nc(C#Cc4ccccc4Cl)c3c2)c1` had an IC50 above 100 nM.

Molecule `CC(C)CC(=O)Nc1cncc(-c2ccc3[nH]nc(C#Cc4cccnc4)c3c2)c1` came in with a half-maximal inhibitory concentration (IC50) in test [1] of 15.6 nM.

Regarding `CC(C)CC(=O)Nc1cncc(-c2ccc3[nH]nc(C#Cc4cccc(C(=O)O)c4)c3c2)c1`, the half-inhibitory concentration (IC50) in [1] is above 100 nM.

As to `Cc1[nH]nc2ccc(-c3cncc(OC[C@@H](N)CC(C)C)c3)cc12`, the IC50 in test [1] is above 100 nM; in test [2] it was 37.2 nM; in [3], 12.3 nM.

For the molecule `CC(C)CC(=O)Nc1cncc(-c2ccc3[nH]nc(C#Cc4ccc(C=O)cc4)c3c2)c1`, the IC50 in [1] was above 100 nM; in test [3], 10.2 nM.

As for `CC(C)C[C@H](N)COc1cncc(-c2ccc3[nH]nc(C#Cc4ccsc4)c3c2)c1`, the inhibition in [4] was 97.2%; in test [5], 96%; in [6], 94.4%; in test [7], 93.1%; in test [8], “Dose-Dependent Effect”; in test [10] it was 93.2%. For the same molecule, the inhibition is 94.1% in [11], 92.4% in test [13] and 94.7% in test [14]. Also, the IC50 in [1] was above 100 nM; in test [2], 21.7 nM; in test [9] it was 21 nM; in test [12], 3.2 nM.

For the molecule `CC(C)CC(=O)Nc1cncc(-c2ccc3[nH]nc(C#Cc4ccncc4)c3c2)c1`, the IC50 in test [1] is above 100 nM.

In turn, `CC(C)CC(=O)Nc1cncc(-c2ccc3[nH]nc(C#CC4CC4)c3c2)c1` returned an IC50 in test [1] above 100 nM.

For the molecule `CC(C)C[C@H](N)COc1cncc(-c2ccc3[nH]nc(C#CC4CC4)c3c2)c1`, the half-inhibitory concentration (IC50) in [1] is above 100 nM.

On to `CC(C)C[C@H](N)COc1cncc(-c2ccc3[nH]nc(C#Cc4cccc(F)c4)c3c2)c1`, for which the IC50 in [1] is above 100 nM.

In test [1], `CC(C)CC(=O)Nc1cncc(-c2ccc3[nH]nc(C#Cc4ncccn4)c3c2)c1` registered an IC50 above 100 nM.

Regarding `C(#Cc1n[nH]c2ccc(-c3cncc(OCC4CCCN4)c3)cc12)c1ccsc1` (stereo not given), the 50% inhibitory concentration (IC50) is above 100 nM in test [1] and 10 nM in test [3].

In [1], `CC(C)CC(=O)Nc1cncc(-c2ccc3[nH]nc(C#Cc4ccc5cnccc5c4)c3c2)c1` returned an IC50 above 100 nM.

On to `CC(C)CC(=O)Nc1cncc(-c2ccc3[nH]nc(C#Cc4ccc5ccccc5n4)c3c2)c1`, for which the IC50 in test [1] was above 100 nM.
